Source: patent publication US10906896B2, “Compositions and methods for inhibiting kinases” (Inhibikase Therapeutics, Inc., priority 2015, dated 2021)

Test system: untransduced Ba/F3 cells grown in the presence of IL-3
Assay: Ba/F3 proliferation, parental cells (Cell Titer Glo)
Format: cell-based
Conditions: 48 hrs, with IL-3
Experimental: (§1) IL-3 was subsequently withdrawn from these populations.
(§2) Final concentrations of each compound were 10 μM, 1 μM, 100 nM, 10 nM, 1 nM, 0.1 nM, 0 nM (plus a blank-media only).
With `Cc1cc(NC(=O)C2=NN=C(c3cncc(-c4ccnc(Nc5cc(NC(=O)c6ccc(CN7CCN(C)CC7)cc6)ccc5C)n4)c3)C2)ccn1` [Compound 103] the IC50 was 2920 nM. For `Cc1csc(-c2cncc(-c3ccnc(Nc4cc(NC(=O)c5ccc(CN6CCN(C)CC6)cc5)ccc4C)n3)c2)n1` [Compound 8290], the IC50 was 2580 nM. Molecule `Cc1cc(NC(=O)C2=NN=C(c3cncc(-c4ccnc(Nc5cc(NC(=O)c6ccc(CN7CCN(C)CC7)cc6)ccc5C)n4)c3)C2)[nH]n1` [Compound 113] has an IC50 of 2060 nM. Molecule `Cc1ccc(-c2cncc(-c3ccnc(Nc4cc(NC(=O)c5ccc(CN6CCN(C)CC6)cc5)ccc4C)n3)c2)nc1` [Compound 820] has an IC50 of 2480 nM. Molecule `Cc1cc(-c2cncc(-c3ccnc(Nc4cc(NC(=O)c5ccc(CN6CCN(C)CC6)cc5)ccc4C)n3)c2)sn1` [Compound 8190] has an IC50 of 2240 nM. With `Cc1cnc(-c2cncc(-c3ccnc(Nc4cc(NC(=O)c5ccc(CN6CCN(C)CC6)cc5)ccc4C)n3)c2)s1` [Compound 8280] the IC50 was 2610 nM. In the case of `Cc1ccc(NC(=O)c2ccc(CN3CCN(C)CC3)cc2)cc1Nc1nccc(-c2cncc(-c3ccn(C)n3)c2)n1` [Compound 832], the IC50 is reported as 2480 nM. `Cc1ccc(NC(=O)c2ccc(CN3CCN(C)CC3)cc2)cc1Nc1nccc(-c2cncc(-c3nccs3)c2)n1` [Compound 8270] showed an IC50 of 2520 nM.

Target: c-Abl1 (Homo sapiens (Human), UniProt P00519)
Sequence (P00519 whole entry): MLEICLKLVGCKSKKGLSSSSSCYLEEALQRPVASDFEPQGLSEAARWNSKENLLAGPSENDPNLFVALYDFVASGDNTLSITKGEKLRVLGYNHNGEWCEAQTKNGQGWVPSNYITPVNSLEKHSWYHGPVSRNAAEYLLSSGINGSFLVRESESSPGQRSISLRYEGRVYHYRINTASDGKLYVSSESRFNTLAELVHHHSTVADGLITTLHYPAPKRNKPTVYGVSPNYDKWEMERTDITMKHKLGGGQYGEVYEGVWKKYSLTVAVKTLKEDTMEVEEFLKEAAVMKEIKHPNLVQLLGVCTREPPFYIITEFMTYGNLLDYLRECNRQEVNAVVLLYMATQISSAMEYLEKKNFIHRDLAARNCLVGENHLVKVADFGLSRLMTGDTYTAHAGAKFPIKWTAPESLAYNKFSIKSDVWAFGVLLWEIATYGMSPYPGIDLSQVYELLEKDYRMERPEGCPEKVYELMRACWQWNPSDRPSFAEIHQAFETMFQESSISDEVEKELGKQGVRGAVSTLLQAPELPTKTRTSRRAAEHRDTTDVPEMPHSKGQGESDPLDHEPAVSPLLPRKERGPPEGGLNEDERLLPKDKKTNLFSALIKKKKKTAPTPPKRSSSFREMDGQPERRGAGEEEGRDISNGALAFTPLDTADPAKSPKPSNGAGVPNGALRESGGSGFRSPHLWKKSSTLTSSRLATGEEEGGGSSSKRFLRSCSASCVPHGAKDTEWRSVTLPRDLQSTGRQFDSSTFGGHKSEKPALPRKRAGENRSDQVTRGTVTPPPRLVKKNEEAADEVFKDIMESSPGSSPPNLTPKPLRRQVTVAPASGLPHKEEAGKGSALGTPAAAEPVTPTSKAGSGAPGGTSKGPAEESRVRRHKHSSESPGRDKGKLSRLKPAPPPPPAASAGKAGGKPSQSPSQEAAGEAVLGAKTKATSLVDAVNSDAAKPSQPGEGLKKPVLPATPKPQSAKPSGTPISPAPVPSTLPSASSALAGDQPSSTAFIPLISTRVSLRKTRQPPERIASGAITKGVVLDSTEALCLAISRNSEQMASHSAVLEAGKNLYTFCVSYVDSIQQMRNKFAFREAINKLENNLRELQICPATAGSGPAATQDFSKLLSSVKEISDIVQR
Assay: c-Abl1 IC50 (FAM-labeled peptide kinase assay)
Format: biochemical
Conditions: not given
Molecule `Cc1ccc(NC(=O)c2ccc(CN3CCN(C)CC3)cc2)cc1Nc1nccc(-c2cncc(-c3snnc3C)c2)n1` [Compound 8240] has an IC50 greater than 1 µM.

Test system: Ba/F3 cells harboring BCR-ABL Y253H
Assay: Ba/F3 proliferation, BCR-ABL Y253H
Format: cell-based
Conditions: 48 hrs, IL-3 withdrawn
Experimental: as §1, §2
For `Cc1cc(NC(=O)C2=NN=C(c3cncc(-c4ccnc(Nc5cc(NC(=O)c6ccc(CN7CCN(C)CC7)cc6)ccc5C)n4)c3)C2)ccn1` [Compound 103], the IC50 was 2590 nM. `Cc1cc(NC(=O)C2=NN=C(c3cncc(-c4ccnc(Nc5cc(NC(=O)c6ccc(CN7CCN(C)CC7)cc6)ccc5C)n4)c3)C2)[nH]n1` [Compound 113] gave an IC50 of 1430 nM.

Test system: BCR-ABL
Assay: not given
Conditions: cited from earlier work
In the case of `Cc1cn(-c2cc(NC(=O)c3ccc(C)c(Nc4nccc(-c5cccnc5)n4)c3)cc(C(F)(F)F)c2)cn1` [Tasigna, nilotinib], the “potency as an inhibitor of BCR-ABL relative to Gleevec” value is given as no more than 20 ×.

Test system: Ba/F3 cells harboring BCR-ABL F359V
Assay: Ba/F3 proliferation, BCR-ABL F359V
Format: cell-based
Conditions: 48 hrs, IL-3 withdrawn
Work on `Cc1cc(NC(=O)C2=NN=C(c3cncc(-c4ccnc(Nc5cc(NC(=O)c6ccc(CN7CCN(C)CC7)cc6)ccc5C)n4)c3)C2)ccn1` [Compound 103] yielded an IC50 of 135 nM. Molecule `Cc1csc(-c2cncc(-c3ccnc(Nc4cc(NC(=O)c5ccc(CN6CCN(C)CC6)cc5)ccc4C)n3)c2)n1` [Compound 8290] has an IC50 of 375 nM. With `Cc1cc(NC(=O)C2=NN=C(c3cncc(-c4ccnc(Nc5cc(NC(=O)c6ccc(CN7CCN(C)CC7)cc6)ccc5C)n4)c3)C2)[nH]n1` [Compound 113] the IC50 was 161 nM. With `Cc1ccc(-c2cncc(-c3ccnc(Nc4cc(NC(=O)c5ccc(CN6CCN(C)CC6)cc5)ccc4C)n3)c2)nc1` [Compound 820] the IC50 was 260 nM. For `Cc1cc(-c2cncc(-c3ccnc(Nc4cc(NC(=O)c5ccc(CN6CCN(C)CC6)cc5)ccc4C)n3)c2)sn1` [Compound 8190], the IC50 was 236 nM. With `Cc1cnc(-c2cncc(-c3ccnc(Nc4cc(NC(=O)c5ccc(CN6CCN(C)CC6)cc5)ccc4C)n3)c2)s1` [Compound 8280] the IC50 was 251 nM. In the case of `Cc1ccc(NC(=O)c2ccc(CN3CCN(C)CC3)cc2)cc1Nc1nccc(-c2cncc(-c3ccn(C)n3)c2)n1` [Compound 832], the IC50 is reported as 46.7 nM. With `Cc1ccc(NC(=O)c2ccc(CN3CCN(C)CC3)cc2)cc1Nc1nccc(-c2cncc(-c3nccs3)c2)n1` [Compound 8270] the IC50 was 203 nM.

Test system: Ba/F3 cells harboring BCR-ABL T315I
Assay: Ba/F3 proliferation, BCR-ABL T315I
Format: cell-based
Conditions: 48 hrs, IL-3 withdrawn
Experimental: as §1, §2
For `Cc1cc(NC(=O)C2=NN=C(c3cncc(-c4ccnc(Nc5cc(NC(=O)c6ccc(CN7CCN(C)CC7)cc6)ccc5C)n4)c3)C2)ccn1` [Compound 103], the IC50 was 2910 nM. Work on `Cc1csc(-c2cncc(-c3ccnc(Nc4cc(NC(=O)c5ccc(CN6CCN(C)CC6)cc5)ccc4C)n3)c2)n1` [Compound 8290] yielded an IC50 of 2480 nM. In the case of `Cc1cc(NC(=O)C2=NN=C(c3cncc(-c4ccnc(Nc5cc(NC(=O)c6ccc(CN7CCN(C)CC7)cc6)ccc5C)n4)c3)C2)[nH]n1` [Compound 113], the IC50 is reported as 2120 nM. In the case of `Cc1ccc(-c2cncc(-c3ccnc(Nc4cc(NC(=O)c5ccc(CN6CCN(C)CC6)cc5)ccc4C)n3)c2)nc1` [Compound 820], the IC50 is reported as 2300 nM. In the case of `Cc1cc(-c2cncc(-c3ccnc(Nc4cc(NC(=O)c5ccc(CN6CCN(C)CC6)cc5)ccc4C)n3)c2)sn1` [Compound 8190], the IC50 is reported as 2680 nM. `Cc1cnc(-c2cncc(-c3ccnc(Nc4cc(NC(=O)c5ccc(CN6CCN(C)CC6)cc5)ccc4C)n3)c2)s1` [Compound 8280] gave an IC50 of 2770 nM. With `Cc1ccc(NC(=O)c2ccc(CN3CCN(C)CC3)cc2)cc1Nc1nccc(-c2cncc(-c3ccn(C)n3)c2)n1` [Compound 832] the IC50 was 2590 nM. For `Cc1ccc(NC(=O)c2ccc(CN3CCN(C)CC3)cc2)cc1Nc1nccc(-c2cncc(-c3nccs3)c2)n1` [Compound 8270], the IC50 was 2790 nM.

Test system: Ba/F3 cells harboring BCR-ABL E255V
Assay: Ba/F3 proliferation, BCR-ABL E255V
Format: cell-based
Conditions: 48 hrs, IL-3 withdrawn
Experimental: as §1, §2
Molecule `Cc1cc(NC(=O)C2=NN=C(c3cncc(-c4ccnc(Nc5cc(NC(=O)c6ccc(CN7CCN(C)CC7)cc6)ccc5C)n4)c3)C2)ccn1` [Compound 103] has an IC50 of 1200 nM. In the case of `Cc1csc(-c2cncc(-c3ccnc(Nc4cc(NC(=O)c5ccc(CN6CCN(C)CC6)cc5)ccc4C)n3)c2)n1` [Compound 8290], the IC50 is reported as 1440 nM. Work on `Cc1cc(NC(=O)C2=NN=C(c3cncc(-c4ccnc(Nc5cc(NC(=O)c6ccc(CN7CCN(C)CC7)cc6)ccc5C)n4)c3)C2)[nH]n1` [Compound 113] yielded an IC50 of 739 nM. In the case of `Cc1ccc(-c2cncc(-c3ccnc(Nc4cc(NC(=O)c5ccc(CN6CCN(C)CC6)cc5)ccc4C)n3)c2)nc1` [Compound 820], the IC50 is reported as 2670 nM. In the case of `Cc1cc(-c2cncc(-c3ccnc(Nc4cc(NC(=O)c5ccc(CN6CCN(C)CC6)cc5)ccc4C)n3)c2)sn1` [Compound 8190], the IC50 is reported as 997 nM. With `Cc1cnc(-c2cncc(-c3ccnc(Nc4cc(NC(=O)c5ccc(CN6CCN(C)CC6)cc5)ccc4C)n3)c2)s1` [Compound 8280] the IC50 was 2390 nM. For `Cc1ccc(NC(=O)c2ccc(CN3CCN(C)CC3)cc2)cc1Nc1nccc(-c2cncc(-c3ccn(C)n3)c2)n1` [Compound 832], the IC50 was 661 nM. In the case of `Cc1ccc(NC(=O)c2ccc(CN3CCN(C)CC3)cc2)cc1Nc1nccc(-c2cncc(-c3nccs3)c2)n1` [Compound 8270], the IC50 is reported as 1030 nM.

Test system: JCV laboratory strain MAD-1
Assay: JCV antiviral potency in Cos 7 cells
Format: cell-based, JC polyomavirus (JCV)
Conditions: not given
For `Cc1ccc(NC(=O)c2ccc(CN3CCN(C)CC3)cc2)cc1Nc1nccc(-c2cncc(C3=NN=C(C(=O)Nc4cn[nH]c4)C3)c2)n1` [Compound 118], the “antiviral activity against JCV” value was “little antiviral activity”.

Test system: Ba/F3 cells harboring BCR-ABL E255K
Assay: Ba/F3 proliferation, BCR-ABL E255K
Format: cell-based
Conditions: 48 hrs, IL-3 withdrawn
In the case of `Cc1cc(NC(=O)C2=NN=C(c3cncc(-c4ccnc(Nc5cc(NC(=O)c6ccc(CN7CCN(C)CC7)cc6)ccc5C)n4)c3)C2)ccn1` [Compound 103], the IC50 is reported as 196 nM. Work on `Cc1csc(-c2cncc(-c3ccnc(Nc4cc(NC(=O)c5ccc(CN6CCN(C)CC6)cc5)ccc4C)n3)c2)n1` [Compound 8290] yielded an IC50 of 80.4 nM. `Cc1cc(NC(=O)C2=NN=C(c3cncc(-c4ccnc(Nc5cc(NC(=O)c6ccc(CN7CCN(C)CC7)cc6)ccc5C)n4)c3)C2)[nH]n1` [Compound 113] gave an IC50 of 46.9 nM. Work on `Cc1ccc(-c2cncc(-c3ccnc(Nc4cc(NC(=O)c5ccc(CN6CCN(C)CC6)cc5)ccc4C)n3)c2)nc1` [Compound 820] yielded an IC50 of 204 nM. With `Cc1cc(-c2cncc(-c3ccnc(Nc4cc(NC(=O)c5ccc(CN6CCN(C)CC6)cc5)ccc4C)n3)c2)sn1` [Compound 8190] the IC50 was 390 nM. `Cc1cnc(-c2cncc(-c3ccnc(Nc4cc(NC(=O)c5ccc(CN6CCN(C)CC6)cc5)ccc4C)n3)c2)s1` [Compound 8280] showed an IC50 of 234 nM. Work on `Cc1ccc(NC(=O)c2ccc(CN3CCN(C)CC3)cc2)cc1Nc1nccc(-c2cncc(-c3ccn(C)n3)c2)n1` [Compound 832] yielded an IC50 of 90.9 nM. With `Cc1ccc(NC(=O)c2ccc(CN3CCN(C)CC3)cc2)cc1Nc1nccc(-c2cncc(-c3nccs3)c2)n1` [Compound 8270] the IC50 was 45.9 nM.
